Where only a bound is given, the exact number is not on record here.

One series in a line: LD50 in the mouse. The following applies: in vivo.
A short description of a further series: LD50 in the rat. The following applies: in vivo, female.
The mark [1] stands for this setting: ip, intraperitoneally in the mouse.

By LD50 is commonly meant the dose expected to kill half of the subjects tested. For the molecule `CC(C)c1cc2ccccc2nc1SCCN(C)C.Cl` [2-(2-dimethylaminoethylthio)-3-isopropylquinoline hydrochloride], the LD50 in the series “LD50 in the mouse” (setting [1]) was roughly 100 mg/kg.

`CN(C)CCSc1nc2ccccc2cc1-c1ccccc1.Cl` [2-(2-dimethylaminoethylthio)-3-phenylquinoline hydrochloride]: the median lethal dose (LD50) in “LD50 in the rat” (oral) is greater than 1000 mg/kg; in the series “LD50 in the rat” (ip, intraperitoneal), 128 mg/kg; in the series “LD50 in the mouse” (ip, mouse, male, intraperitoneal), 75 mg/kg; in the series “LD50 in the mouse” (mouse, male, oral), 485 mg/kg.

In “LD50 in the mouse” (setting [1]), `COc1ccccc1-c1cc2ccccc2nc1SCCN(C)C.Cl` [2-(2-dimethylaminoethylthio)-3-(o-methoxyphenyl)-quinoline hydrochloride] gave an LD50 of roughly 150 mg/kg.

The values above are taken from patent publication US4435405A, “Quinoline derivatives which are 5-hydroxytryptamine antagonists” (Imperial Chemical Industries PLC, priority 1981, dated 1984).
